Drawing on US9963462B2 (priority 2015, dated 2018), this text covers IC50 for 22 compounds.

Test [1] has as its target SNAP-hSPR (sepiapterin reductase, SPR) (Homo sapiens, UniProt P35270). As to the kind of experiment: biochemical. Type of test: binding. Particulars: terbium labelled SNAP-hSPR / SSZ labelled SNAP-EGFP; read-out: hTR-FRET IC50.
The subject of test [2] is BH4 levels in SK-N-BE (2) cells. As to the kind of experiment: SKN-N-BE (2) cellular assay, BH4 levels by LC-MS. Type of test: cell-based. Particulars: Homo sapiens, SKNBE2, read-out: SK-N-BE(2) IC50, SK-N-BE (2) cells, BH4 levels by LC-MS.

Sequence of SNAP-hSPR (sepiapterin reductase, SPR) (P35270 whole entry): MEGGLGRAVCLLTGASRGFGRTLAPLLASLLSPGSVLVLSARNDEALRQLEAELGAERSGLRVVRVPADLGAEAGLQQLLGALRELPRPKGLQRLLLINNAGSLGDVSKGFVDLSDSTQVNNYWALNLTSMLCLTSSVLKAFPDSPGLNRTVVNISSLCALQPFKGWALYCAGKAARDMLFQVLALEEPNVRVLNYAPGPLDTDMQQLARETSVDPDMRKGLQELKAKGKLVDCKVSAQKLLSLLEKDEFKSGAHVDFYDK

Regarding `Cc1c(C(=O)N(C)CCc2c[nH]c3ccccc23)cnn1-c1nc2c(c(=O)[nH]1)CCC2` [Q-0497], the half-inhibitory concentration (IC50) was 9 nM in test [1] and 400 nM in test [2].
Turning to `Cc1c(C(=O)N2CCC(c3c[nH]c4ccccc34)CC2)cnn1-c1nc2c(c(=O)[nH]1)CCC2` [Q-0498], the values for the IC50 in test [1] and in test [2] were 20 nM and 30 nM, respectively.
On to `Cc1c(C(=O)N2CCC(c3nc4ccccc4s3)CC2)cnn1-c1nc2c(c(=O)[nH]1)CCC2` [Q-0499], for which the figures for the IC50 in test [1] and in test [2] were 20 nM and 44 nM, respectively.
The like results for `Cc1c(C(=O)N(CC2COc3ccccc3O2)C(C)C)cnn1-c1nc2c(c(=O)[nH]1)CCC2` (centres unmarked) [Q-0500] were, in that order, 30 nM and 97 nM.
As to `Cc1ccc(C2(C)CN(C(=O)c3cnn(-c4nc5c(c(=O)[nH]4)CCC5)c3C)CCO2)cc1` (centres unmarked) [Q-0501], the values for the IC50 in test [1] and in test [2] were 9 nM and 200 nM, respectively.
On to `Cc1c(C(=O)N(CCc2ccccc2)CC(O)C(F)(F)F)cnn1-c1nc2c(c(=O)[nH]1)CCC2` (centres unmarked) [Q-0502], for which the IC50 in test [1] came out at 20 nM; in test [2], 400 nM.
For `Cc1c(C(=O)N2CCC(S(=O)(=O)c3ccccc3)CC2)cnn1-c1nc2c(c(=O)[nH]1)CCC2` [Q-0504], the half-inhibitory concentration (IC50) in test [1] amounted to 4 nM; in test [2] it was 58 nM.
For the compound `Cc1c(C(=O)N2CCCCC2c2cccnc2)cnn1-c1nc2c(c(=O)[nH]1)CCC2` (centres unmarked) [Q-0505], the IC50 amounted to 4 nM in test [1] and 100 nM in test [2].
With `Cc1c(C(=O)N(C)Cc2ccc3ncccc3c2)cnn1-c1nc2c(c(=O)[nH]1)CCC2` [Q-0506], the IC50 in test [1] was 3 nM; in test [2] it was 200 nM.
The corresponding values for `Cc1c(C(=O)N2CCN(C(=O)OCc3ccccc3)C(C)C2)cnn1-c1nc2c(c(=O)[nH]1)CCC2` (centres unmarked) [Q-0507] are 10 nM and 200 nM.
As to `O=C(c1ccnc(-c2nc3c(c(=O)[nH]2)CCC3)c1)N1CCC(C(F)(F)F)CC1` [Q-0508], the values for the half-inhibitory concentration (IC50) in test [1] and in test [2] were 30 nM and 2000 nM, respectively.
For `Cc1c(C(=O)N2C3CCC2CC(O)(c2ccccc2)C3)cnn1-c1nc2c(c(=O)[nH]1)CCC2` (centres unmarked) [Q-0509], the results for the half-maximal inhibitory concentration (IC50) in test [1] and in test [2] were 3 nM and 68 nM, respectively.
Regarding `Cc1c(C(=O)N2CCC(c3ccccc3)C2)cnn1-c1nc2c(c(=O)[nH]1)CCC2` (centres unmarked) [Q-0510], the IC50 in test [1] was determined as 5 nM; in test [2], 100 nM.
On to `O=C(c1cnn(-c2cc3ccsc3c(=O)[nH]2)c1)N1CCC(C(F)(F)F)CC1` [Q-0511, 5-{4-[4-(trifluoromethyl)piperidine-1-carbonyl]-1H-pyrazol-1-yl}-6H,7H-thieno[2,3-c]pyridin-7-one], for which the IC50 in test [1] was 3 nM; in test [2], 300 nM.
Regarding `Cc1c(C(=O)N2C3CCC2CC(c2ccccc2)C3)cnn1-c1nc2c(c(=O)[nH]1)CCC2` (centres unmarked) [Q-0513], the IC50 in test [1] turned out to be 10 nM; in test [2], 47 nM.
Consider `COC1(c2ccccc2)CCN(C(=O)c2cnn(-c3nc4c(c(=O)[nH]3)CCC4)c2C)CC1` [Q-0514], for which the IC50 came out at 7 nM in test [1] and 57 nM in test [2].
`O=C(c1ccnc(-c2nc3ccsc3c(=O)[nH]2)c1)N1CCC(C(F)(F)F)CC1` [Q-0515]: the IC50 in test [1] worked out at 40 nM; in test [2] it was 5300 nM.
As for `O=C(c1cnn(-c2nc3ccsc3c(=O)[nH]2)c1)N1CCC(C(F)(F)F)CC1` [Q-0517], the results for the concentration for half-maximal inhibition (IC50) in test [1] and in test [2] were 2 nM and 100 nM, respectively.
Turning to `COC1(C)CCN(C(=O)c2cnn(-c3nc4c(c(=O)[nH]3)CCC4)c2C)CC1` [Q-0520], the IC50 in test [1] was determined as 3 nM; in test [2], 200 nM.
As to `Cc1c(C(=O)N2CCC(OCC(F)(F)F)CC2)cnn1-c1nc2c(c(=O)[nH]1)CCC2` [Q-0521], the values for the IC50 in test [1] and in test [2] were 8 nM and 100 nM, respectively.
As for `O=c1[nH]c(-c2cc(S(=O)(=O)N3CCC(C(F)(F)F)CC3)ccn2)nc2c1CCC2` [Q-0522], the IC50 in test [1] is 300 nM; in test [2] it was 10000 nM.
On to `N#CC1(c2ccccc2)CCN(C(=O)c2cnn(-c3nc4ccsc4c(=O)[nH]3)c2)CC1` [Q-0523], for which the IC50 was found to be 20 nM in test [1] and 100 nM in test [2].

The IC50 is the concentration at which inhibition is half-maximal.
